ChEMBL document CHEMBL5104202, “Structure-Uptake Relationship Studies of Oxazolidinones in Gram-Negative ESKAPE Pathogens” (J Med Chem, 2022)

Columns and labels:
Format in all cases: functional, organism-based
Pseudomonas aeruginosa [1] = assay: Antibacterial activity against efflux pump lacking/recombinant OM pore producing Pseudomonas aeruginosa assessed as inhibition of bacterial growth
Escherichia coli [2] = assay: Antibacterial activity against wild type Escherichia coli assessed as inhibition of bacterial growth
Acinetobacter baumannii [3] = assay: Antibacterial activity against efflux pump lacking/recombinant OM pore producing Acinetobacter baumannii assessed as inhibition of bacterial growth
Acinetobacter baumannii [4] = assay: Antibacterial activity against recombinant OM pore producing Acinetobacter baumannii assessed as inhibition of bacterial growth
Escherichia coli [5] = assay: Antibacterial activity against efflux pump lacking Escherichia coli assessed as inhibition of bacterial growth
Pseudomonas aeruginosa [6] = assay: Antibacterial activity against recombinant OM pore producing Pseudomonas aeruginosa assessed as inhibition of bacterial growth
Acinetobacter baumannii [7] = assay: Antibacterial activity against wild type Acinetobacter baumannii assessed as inhibition of bacterial growth
Acinetobacter baumannii [8] = assay: Antibacterial activity against efflux pump lacking Acinetobacter baumannii assessed as inhibition of bacterial growth
Pseudomonas aeruginosa [9] = assay: Antibacterial activity against wild type Pseudomonas aeruginosa assessed as inhibition of bacterial growth
Escherichia coli [10] = assay: Antibacterial activity against efflux pump lacking/recombinant OM pore producing Escherichia coli assessed as inhibition of bacterial growth
Escherichia coli [11] = assay: Antibacterial activity against recombinant OM pore producing Escherichia coli assessed as inhibition of bacterial growth
Pseudomonas aeruginosa [12] = assay: Antibacterial activity against efflux pump lacking Pseudomonas aeruginosa assessed as inhibition of bacterial growth

SMILES | IC50 (Pseudomonas aeruginosa [1]) [µM] | IC50 (Escherichia coli [2]) [µM] | IC50 (Acinetobacter baumannii [3]) [µM] | IC50 (Acinetobacter baumannii [4]) [µM] | IC50 (Escherichia coli [5]) [µM] | IC50 (Pseudomonas aeruginosa [6]) [µM] | IC50 (Acinetobacter baumannii [7]) [µM] | IC50 (Acinetobacter baumannii [8]) [µM] | IC50 (Pseudomonas aeruginosa [9]) [µM] | IC50 (Escherichia coli [10]) [µM] | IC50 (Escherichia coli [11]) [µM] | IC50 (Pseudomonas aeruginosa [12]) [µM]
N=C(N)NCc1ccc(-c2ccc(N3C[C@H](CO)OC3=O)cc2F)cc1 | 25.7 | > 100 | 32.5 | 65.9 | 63.8 | > 100 | > 100 | 67.8 | > 100 | 55.7 | 56.1 | 12
C[n+]1ccc2ccc(-c3ccc(N4C[C@H](CO)OC4=O)cc3F)cc2c1 | > 100 | > 100 | 9.4 | 27.4 | 5.6 | > 100 | > 100 | 48.6 | > 100 | 9.6 | 21 | > 100
C[n+]1ccc2cc(-c3ccc(N4C[C@H](CO)OC4=O)cc3F)ccc2c1 | > 100 | 63.6 | 27.9 | 20.1 | 4 | > 100 | > 100 | 29.7 | > 100 | 11.4 | 30 | > 100
CC(C)(C)OC(=O)N[C@@H](Cc1cccc(-c2ccc(N3C[C@H](CO)OC3=O)cc2F)c1)C(=O)O | > 100 | > 100 | > 100 | > 100 | > 100 | > 100 | > 100 | > 100 | > 100 | > 100 | > 100 | > 100
O=C1O[C@@H](CO)CN1c1ccc(-c2ccc(-c3ccccn3)cc2)c(F)c1 | > 100 | 76.2 | 21.5 | 35.3 | 55.6 | > 100 | 35.3 | 21.5 | > 100 | 55.2 | 47.2 | > 100
COc1ccc(CNC(=O)OC(C)(C)C)cc1OCC#Cc1ccc(N2C[C@H](CO)OC2=O)cc1F | 46.9 | > 100 | 28.7 | 42.4 | 42.9 | > 100 | > 100 | 72.2 | > 100 | 44.4 | > 100 | > 100
O=C1O[C@@H](CO)CN1c1ccc(C#CCO)c(F)c1 | > 100 | > 100 | > 100 | > 100 | 84 | > 100 | > 100 | > 100 | > 100 | 43.6 | > 100 | > 100
O=C(O)c1cncc(-c2ccc(N3C[C@H](CO)OC3=O)cc2F)c1 | > 100 | > 100 | > 100 | > 100 | > 100 | > 100 | > 100 | > 100 | > 100 | 42.2 | > 100 | > 100
O=C1O[C@@H](CO)CN1c1ccc(-c2ccccc2)c(F)c1 | 1.4 | 18.4 | 1.9 | 5.5 | 0.4 | 13.1 | 18.4 | 2.3 | > 100 | 0.3 | 2 | 2.3
O=C1NCCN1CC#Cc1ccc(N2C[C@H](CO)OC2=O)cc1F | > 100 | > 100 | > 100 | > 100 | 64.3 | > 100 | > 100 | > 100 | > 100 | 39 | > 100 | > 100
O=C1O[C@@H](CO)CN1c1ccc(-c2ccnc(N3CCCC3)c2)c(F)c1 | > 100 | > 100 | 72.4 | 71.9 | 15.4 | > 100 | 71.9 | 72.4 | > 100 | 1.5 | 4 | > 100
O=C1O[C@@H](CO)CN1c1ccc(-c2ccc(-c3cccnc3)cc2)c(F)c1 | > 100 | > 100 | > 100 | > 100 | > 100 | > 100 | > 100 | > 100 | > 100 | > 100 | > 100 | > 100
COc1ccc(CN)cc1OCC#Cc1ccc(N2C[C@H](CO)OC2=O)cc1F | > 100 | > 100 | > 100 | > 100 | > 100 | > 100 | > 100 | > 100 | > 100 | > 100 | > 100 | > 100
CCC[n+]1ccc(-c2ccc(N3C[C@H](CO)OC3=O)cc2F)cc1 | > 100 | 43.9 | 19.8 | 19.8 | 12.7 | > 100 | > 100 | 89.7 | > 100 | 16.6 | 28.3 | > 100
Cn1ncc(C#Cc2ccc(N3C[C@H](CO)OC3=O)cc2F)c1C(=O)O | > 100 | > 100 | 89.5 | 61.3 | > 100 | > 100 | > 100 | 88.2 | > 100 | > 100 | > 100 | > 100
CC(=O)OCC#Cc1ccc(N2C[C@H](CO)OC2=O)cc1F | > 100 | > 100 | > 100 | > 100 | 72.4 | > 100 | > 100 | > 100 | > 100 | 39.7 | 44.4 | > 100
CC(C)(C)OC(=O)NCC#Cc1ccc(N2C[C@H](CO)OC2=O)cc1F | > 100 | > 100 | > 100 | > 100 | 83.4 | > 100 | > 100 | > 100 | > 100 | 64.7 | 74.3 | > 100
N/C(=N/O)c1ccc(-c2ccc(N3C[C@H](CO)OC3=O)cc2F)cc1 | 1.8 | 55.9 | 0.9 | 2.8 | 0.6 | 63.6 | 22.1 | 1.2 | > 100 | 1 | 7.5 | 5.1
